Source: patent publication US9670210B2, “Cyclopropylamines as LSD1 inhibitors” (Incyte Corporation, priority 2014, dated 2017)

Target: LSD-1 enzyme (Homo sapiens (Human), UniProt O60341)
Protocol: LSD1 Histone Demethylase Biochemical Assay
LANCE LSD1/KDM1A demethylase assay-10 μL of 1 nM LSD-1 enzyme (ENZO BML-SE544-0050) in the assay buffer (50 mM Tris, pH 7.5, 0.01% Tween-20, 25 mM NaCl, 5 mM DTT) were preincubated for 1 hour at 25° C. with 0.8 μL compound/DMSO dotted in black 384 well polystyrene plates. […] After stopping the reactions plates were incubated for 30 minutes and read on a PHERAstar FS plate reader (BMG Labtech).

Compound	IC50
COCC1(CN[C@@H]2C[C@H]2c2ccccc2)CCN(C(=O)c2ccc(N)nn2)CC1 [Example 40, 6-{[4-(methoxymethyl)-4-({[(1R,2S)-2-phenylcyclopropyl]amino}methyl)piperidin-1-yl]carbonyl}pyridazin-3-amine]	< 100 nM
COCC1(CN[C@@H]2C[C@H]2c2ccccc2)CCN(C(=O)C2CCN(C)CC2)CC1 [Example 41, (1R,2S)—N-({4-(methoxymethyl)-1-[(1-methylpiperidin-4-yl)carbonyl]piperidin-4-yl}methyl)-2-phenylcyclopropanamine]	< 100 nM
COCC1(CN[C@@H]2C[C@H]2c2ccccc2)CCN(C(=O)c2ccn(C)n2)CC1 [Example 42, (1R,2S)—N-({4-(methoxymethyl)-1-[(1-methyl-1H-pyrazol-3-yl)carbonyl]piperidin-4-yl}methyl)-2-phenylcyclopropanamine]	< 100 nM
COCC1(CN[C@@H]2C[C@H]2c2ccccc2)CCN(C(=O)N2CCN(C)CC2)CC1 [Example 43, (1R,2S)—N-({4-(methoxymethyl)-1-[(4-methylpiperazin-1-yl)carbonyl]piperidin-4-yl}methyl)-2-phenylcyclopropanamine]	< 100 nM
CC1(CN[C@@H]2C[C@H]2c2ccccc2)CCN(CC2(C(=O)O)CC2)CC1 [Example 44, 1-{[4-methyl-4-({[(1R,2S)-2-phenylcyclopropyl]amino}methyl)piperidin-1-yl]methyl}cyclopropanecarboxylic acid]	< 100 nM
CC1(CN[C@@H]2C[C@H]2c2ccccc2)CCN(CC2(C(=O)O)CCC2)CC1 [Example 45, 1-{[4-methyl-4-({[(1R,2S)-2-phenylcyclopropyl]amino}methyl)piperidin-1-yl]methyl}cyclobutanecarboxylic acid]	< 100 nM
Cn1ccc(C(=O)N2CCC(C)(CN[C@@H]3C[C@H]3c3ccccc3)CC2)n1 [Example 46, (1R,2S)—N-({4-methyl-1-[(1-methyl-1H-pyrazol-3-yl)carbonyl]piperidin-4-yl}methyl)-2-phenylcyclopropanamine]	< 100 nM
Cn1cnc(C(=O)N2CCC(C)(CN[C@@H]3C[C@H]3c3ccccc3)CC2)c1 [Example 47, (1R,2S)—N-({4-methyl-1-[(1-methyl-1H-imidazol-4-yl)carbonyl]piperidin-4-yl}methyl)-2-phenylcyclopropanamine]	< 100 nM
CC1(CN[C@@H]2C[C@H]2c2ccccc2)CCN(C(=O)c2cnc(N)nc2)CC1 [Example 48, 5-{[4-methyl-4-({[(1R,2S)-2-phenylcyclopropyl]amino}methyl)piperidin-1-yl]carbonyl}pyrimidin-2-amine]	< 100 nM
CC1(CN[C@@H]2C[C@H]2c2ccccc2)CCN(C(=O)c2ccc(N)nn2)CC1 [Example 49, 6-{[4-methyl-4-({[(1R,2S)-2-phenylcyclopropyl]amino}methyl)piperidin-1-yl]carbonyl}pyridazin-3-amine]	< 100 nM
CC1(CN[C@@H]2C[C@H]2c2ccccc2)CCN(C(=O)c2c[nH]nc2N)CC1 [Example 50, 4-{[4-methyl-4-({[(1R,2S)-2-phenylcyclopropyl]amino}methyl)piperidin-1-yl]carbonyl}-1H-pyrazol-3-amine]	< 100 nM
CC1(CN[C@@H]2C[C@H]2c2ccccc2)CCN(C(=O)C2(N)CCCC2)CC1 [Example 51, 1-{[4-methyl-4-({[(1R,2S)-2-phenylcyclopropyl]amino}methyl)piperidin-1-yl]carbonyl}cyclopentanamine]	< 100 nM
CC1(CN[C@@H]2C[C@H]2c2ccccc2)CCN(Cc2cnc(N)nc2)CC1 [Example 52, 5-{[4-methyl-4-({[(1R,2S)-2-phenylcyclopropyl]amino}methyl)piperidin-1-yl]methyl}pyrimidin-2-amine]	< 100 nM
N#CCc1ccc(CC2(CN[C@@H]3C[C@H]3c3ccccc3)CCN(CC3(C(=O)O)CC3)CC2)cc1 [Example 53, 1-{[4-[4-(cyanomethyl)benzyl]-4-({[(1R,2S)-2-phenylcyclopropyl]amino}methyl)piperidin-1-yl]methyl}cyclopropanecarboxylic acid]	< 100 nM
N#CCc1ccc(CC2(CN[C@@H]3C[C@H]3c3ccccc3)CCN(CC3(C(=O)O)CCC3)CC2)cc1 [Example 54, 1-{[4-[4-(cyanomethyl)benzyl]-4-({[(1R,2S)-2-phenylcyclopropyl]amino}methyl)piperidin-1-yl]methyl}cyclobutanecarboxylic acid]	< 100 nM
N#Cc1ccc(CC2(CN[C@@H]3C[C@H]3c3ccccc3)CCN(CC3(C(=O)O)CC3)CC2)cc1 [Example 55, 1-{[4-(4-cyanobenzyl)-4-({[(1R,2S)-2-phenylcyclopropyl]amino}methyl)piperidin-1-yl]methyl}cyclopropanecarboxylic acid]	< 100 nM
N#Cc1cccc(CC2(CN[C@@H]3C[C@H]3c3ccccc3)CCN(CC3(C(=O)O)CC3)CC2)c1 [Example 56, 1-{[4-(3-cyanobenzyl)-4-({[(1R,2S)-2-phenylcyclopropyl]amino}methyl)piperidin-1-yl]methyl}cyclopropanecarboxylic acid]	< 100 nM

Compound	IC50
N#Cc1cccc(CC2(CN[C@@H]3C[C@H]3c3ccccc3)CCN(CC3(C(=O)O)CCC3)CC2)c1 [Example 57, 1-{[4-(3-cyanobenzyl)-4-({[(1R,2S)-2-phenylcyclopropyl]amino}methyl)piperidin-1-yl]methyl}cyclobutanecarboxylic acid]	< 100 nM
N#Cc1cccc(CC2(CN[C@@H]3C[C@H]3c3ccccc3)CCN(C[C@H]3CC[C@H](C(=O)O)CC3)CC2)c1 [Example 58, trans-4-{[4-(3-cyanobenzyl)-4-({[(1R,2S)-2-phenylcyclopropyl]amino}methyl)piperidin-1-yl]methyl}cyclohexanecarboxylic acid]	< 100 nM
COc1cccc(CN2CCC(CN[C@@H]3C[C@H]3c3ccccc3)(Cc3cccc(C(=O)O)c3)CC2)c1 [Example 59, 3-{[1-(3-methoxybenzyl)-4-({[(1R,2S)-2-phenylcyclopropyl]amino}methyl)piperidin-4-yl]methyl}benzoic acid]	< 100 nM
COCC1(CN[C@@H]2C[C@H]2c2ccccc2)CCN(C(=O)N2CC[C@@H](O)C2)CC1 [Example 60, (3R)-1-{[4-(methoxymethyl)-4-({[(1R,2S)-2-phenylcyclopropyl]amino}methyl)piperidin-1-yl]carbonyl}pyrrolidin-3-ol]	< 100 nM
COCC1(CN[C@@H]2C[C@H]2c2ccccc2)CCN(C(=O)N2CC[C@H](O)C2)CC1 [Example 61, (3S)-1-{[4-(methoxymethyl)-4-({[(1R,2S)-2-phenylcyclopropyl]amino}methyl)piperidin-1-yl]carbonyl}pyrrolidin-3-ol]	< 100 nM
COCC1(CN[C@@H]2C[C@H]2c2ccccc2)CCN(Cc2ccc(C(=O)O)cc2)CC1 [Example 62, 4-{[4-(methoxymethyl)-4-({[(1R,2S)-2-phenylcyclopropyl]amino}methyl)piperidin-1-yl]methyl}benzoic acid]	< 100 nM
COCC1(CN[C@@H]2C[C@H]2c2ccc(F)cc2)CCN(CC2(C(=O)O)CCC2)CC1 [Example 63, 1-{[4-({[(1R,2S)-2-(4-fluorophenyl)cyclopropyl]amino}methyl)-4-(methoxymethyl)piperidin-1-yl]methyl}cyclobutanecarboxylic acid]	< 100 nM
COCC1(CN[C@@H]2C[C@H]2c2ccccc2F)CCN(CC2(C(=O)O)CCC2)CC1 [Example 64, 1-{[4-({[(1R,2S)-2-(2-fluorophenyl)cyclopropyl]amino}methyl)-4-(methoxymethyl)piperidin-1-yl]methyl}cyclobutanecarboxylic acid]	< 100 nM
COCC1(CN[C@@H]2C[C@H]2c2ccc(F)c(F)c2)CCN(CC2(C(=O)O)CCC2)CC1 [Example 65, 1-{[4-({[(1R,2S)-2-(3,4-difluorophenyl)cyclopropyl]amino}methyl)-4-(methoxymethyl)piperidin-1-yl]methyl}cyclobutanecarboxylic acid]	< 100 nM
COCC1(CNC2CC2c2ccccc2OC)CCN(CC2(C(=O)O)CCC2)CC1 (stereo not drawn) [Example 66, 1-{[4-(methoxymethyl)-4-({[2-(2-methoxyphenyl)cyclopropyl]amino}methyl)piperidin-1-yl]methyl}cyclobutanecarboxylic acid]	< 100 nM
COCC1(CNC2CC2c2ccc(OC)cc2)CCN(CC2(C(=O)O)CCC2)CC1 (stereo not drawn) [Example 67, 1-{[4-(methoxymethyl)-4-({[2-(4-methoxyphenyl)cyclopropyl]amino}methyl)piperidin-1-yl]methyl}cyclobutanecarboxylic acid]	< 100 nM
COCC1(C(C)N[C@@H]2C[C@H]2c2ccccc2)CCN(CC2(C(=O)O)CCC2)CC1 (stereo partly drawn) [Example 68, 1-{[4-(methoxymethyl)-4-(1-{[(1R,2S)-2-phenylcyclopropyl]amino}ethyl)piperidin-1-yl]methyl}cyclobutanecarboxylic acid]	< 100 nM
COc1ccc(CC2(CN[C@@H]3C[C@H]3c3ccccc3)CCN(CC3(C(=O)O)CC3)CC2)cn1 [Example 69, 1-{[4-[(6-methoxypyridin-3-yl)methyl]-4-({[(1R,2S)-2-phenylcyclopropyl]amino}methyl)piperidin-1-yl]methyl}cyclopropanecarboxylic acid]	< 100 nM
CCOCC1(CN[C@@H]2C[C@H]2c2ccccc2)CCN(CC2(C(=O)O)CC2)CC1 [Example 70, 1-{[4-(ethoxymethyl)-4-({[(1R,2S)-2-phenylcyclopropyl]amino}methyl)piperidin-1-yl]methyl}cyclopropanecarboxylic acid]	< 100 nM
CCOCC1(CN[C@@H]2C[C@H]2c2ccccc2)CCN(CC2(C(=O)O)CCC2)CC1 [Example 71, 1-{[4-(ethoxymethyl)-4-({[(1R,2S)-2-phenylcyclopropyl]amino}methyl)piperidin-1-yl]methyl}cyclobutanecarboxylic acid]	< 100 nM
O=C(O)C1(CN2CCC(CN[C@@H]3C[C@H]3c3ccccc3)(COCc3ccccc3)CC2)CC1 [Example 72, 1-{[4-[(benzyloxy)methyl]-4-({[(1R,2S)-2-phenylcyclopropyl]amino}methyl)piperidin-1-yl]methyl}cyclopropanecarboxylic acid]	< 100 nM
